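Five compound concentrations were applied to cells in 96-well plates for 48 hours; endpoints were derived by simple linear interpolation of the resulting dose-response curve. At the TGI there is no net growth.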
Columns and labels:
Assay in all cases: NCI-60 cell line screen, 48 h
SW-620 colon = test system: SW-620 colon
EKVX NSCLC = test system: EKVX NSCLC
BT-549 breast = test system: BT-549 breast
SK-MEL-5 melanoma = test system: SK-MEL-5 melanoma
LOX IMVI melanoma = test system: LOX IMVI melanoma
HCC-2998 colon = test system: HCC-2998 colon
HCT-15 colon = test system: HCT-15 colon
SK-MEL-2 melanoma = test system: SK-MEL-2 melanoma
NCI-H23 lung = test system: NCI-H23 lung
IGROV1 ovarian = test system: IGROV1 ovarian

Row | Structure (SMILES) | TGI (SW-620 colon) [µM] | TGI (EKVX NSCLC) [µM] | TGI (BT-549 breast) [µM] | TGI (SK-MEL-5 melanoma) [µM] | TGI (LOX IMVI melanoma) [µM] | TGI (HCC-2998 colon) [µM] | TGI (HCT-15 colon) [µM] | TGI (SK-MEL-2 melanoma) [µM] | TGI (NCI-H23 lung) [µM] | TGI (IGROV1 ovarian) [µM]
1 | CCOC(=O)C1=C(C)N(c2ccc(C)cc2)C2(O)C=CC(=O)C3=C(O)c4ccccc4C(=O)C312 (stereo not given) | 61.1 | > 100 | 49.3 | 42.1 | 96.8 | 59.4 | > 100 | 94.1 | > 100 | 45.5
2 | O=C(/C=C/c1ccccc1)CCc1c(O)c2ccccc2oc1=O | > 100 | > 100 | > 100 | > 100 | > 100 | > 100 | > 100 | > 100 | > 100 | > 100
3 | O=C(NCc1cccnc1)C(=O)NCc1cccnc1 | > 100 | > 100 | > 100 | > 100 | > 100 | > 100 | > 100 | > 100 | > 100 | > 100
4 | O=C1C(=Cc2ccccc2[N+](=O)[O-])N=C(c2ccccc2)N1n1c(-c2ccccc2)nc2ccccc2c1=O | > 100 | > 100 | > 100 | > 100 | 68.5 | > 100 | > 100 | 88.2 | 65 | > 100
